Results reported in patent US20180147131A1, “COMPOSITION FOR ORAL CAVITY AND FOOD PRODUCT, OR BEVERAGE” (KABUSHIKI KAISHA SANGI, priority 2015, published 2018).

Test: Remineralization test (artificial incipient caries, contact microradiogram, computer image analysis)
Design: species or system bovine
Details: conclusion from the remineralization tests of Examples and Comparative Examples
From the text: In order to confirm the remineralizing effect, a previously made artificial incipient caries test sample was used. For the making of the artificial incipient caries test sample, enamel on the labial surface of the crown portion of a bovine front tooth was used. The enamel surface was abraded with #1000, #2400, and #4000 abrasive paper. A window of about 5×3 mm was made with Nail Enamel (Manufactured by Shiseido Company, Limited) at a site to be tested, on the abraded enamel surface, and immersed in a 0.1 M lactate buffer solution (pH 4.8, 3.0 mmM CaCl2, 1.8 mmM KH2PO4, 1.0% CMC) at 37° C. for 4 days to make artificial incipient caries. […]
The effect of remineralizing the artificial incipient caries site was analyzed using a computer.
In image analysis by the computer, the amount of the remineralized mineral was calculated based on the formula of Angmer et al. (B. Angmer, D. Carlstrom and J. E. Glas: Studies on Ultrastructure of Dental Enemel IV: The Mineralization of normal Human Enamel, J. Ultrastructure. Res. 8, 12-23, 1963), and the amounts of the mineral lost AZ (% volume mineral·μm) at the control surface and treated surface of each section were calculated according to the method of Damato et al. (F. A. Damato, R. Stang and K. W. Stephen: Effect of Fluoride Concentration on Reminerelization of Carious Enamel: an in vitro pH-Cycling Study, Caries Res, 24, 174-180, 1990). […]

sodium chondroitin sulfate
tooth remineralizing effect (in words): little tooth remineralizing effect
